# Laboratory results as given in article PMC11855478, “Bicyclic N,S-Acetals Containing Fused Cysteine-Amide System as New Heterocyclic Class Targeting Human Farnesyltransferase (FTase-h)” (International Journal of Molecular Sciences, 2025).
# Tests used:
# HCT-15 (Colon Cancer) = assay: NCI one dose, HCT-15; format: cell-based, human; details: HCT-15, 1.00E-5 Molar one dose
# Procedure, shortened: (§1)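 Cells of the National Cancer Institute 60-line human cancer screen are treated with test compound for 48 h, then growth is quantified by SRB assay.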
# [1] = test system: panel of 60 human cancer cell lines; assay: NCI 60 cell panel one dose screen (whole panel); format: cell-based; set-up: Delta (One Dose Mean Graph): unit not given here; details: 1.00E-5 Molar one dose
# Procedure, shortened: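 Sulforhodamine B read-out after 48 h treatment at one high dose (10 µM), run on the full 60-line NCI human tumour cell panel.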
# MCF7 (Breast Cancer) = assay: NCI one dose, MCF7; format: cell-based, human; details: MCF7, 1.00E-5 Molar one dose
# Procedure, shortened: as §1
# IGROV1 (Ovarian Cancer) = assay: NCI one dose, IGROV1; format: cell-based, human; details: IGROV1, 1.00E-5 Molar one dose
# Procedure, shortened: as §1
# HS 578T (Breast Cancer) = assay: NCI one dose, HS 578T; format: cell-based, human; details: 1.00E-5 Molar one dose
# Procedure, shortened: as §1
# SK-OV-3 (Ovarian Cancer) = assay: NCI one dose, SK-OV-3; format: cell-based, human; details: SK-OV-3, 1.00E-5 Molar one dose
# Procedure, shortened: as §1
# [2] = test system: A549/ATCC (Non-Small Cell Lung Cancer); assay: NCI one dose, A549/ATCC; format: cell-based, human; details: 1.00E-5 Molar one dose
# Procedure, shortened: as §1
# SK-MEL-5 (Melanoma) = assay: NCI one dose, SK-MEL-5; format: cell-based, human; details: SK-MEL-5, 1.00E-5 Molar one dose
# Procedure, shortened: as §1
# HCC-2998 (Colon Cancer) = assay: NCI one dose, HCC-2998; format: cell-based, human; details: HCC-2998, 1.00E-5 Molar one dose
# Procedure, shortened: as §1
# M14 (Melanoma) = assay: NCI one dose, M14; format: cell-based, human; details: M14, 1.00E-5 Molar one dose
# Procedure, shortened: as §1
# SF-295 (CNS Cancer) = assay: NCI one dose, SF-295; format: cell-based, human; details: SF-295, 1.00E-5 Molar one dose
# Procedure, shortened: (§2)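 NCI60 human tumour panel; 48 h drug exposure; SRB read-out.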
# OVCAR-3 (Ovarian Cancer) = assay: NCI one dose, OVCAR-3; format: cell-based, human; details: OVCAR-3, 1.00E-5 Molar one dose
# Procedure, shortened: as §1
# SK-MEL-28 (Melanoma) = assay: NCI one dose, SK-MEL-28; format: cell-based, human; details: SK-MEL-28, 1.00E-5 Molar one dose
# Procedure, shortened: as §1
# A498 (Renal Cancer) = assay: NCI one dose, A498; format: cell-based, human; details: A498, 1.00E-5 Molar one dose
# Procedure, shortened: as §1
# RPMI-8226 (Leukemia) = assay: NCI one dose, RPMI-8226; format: cell-based, human; details: RPMI-8226, 1.00E-5 Molar one dose
# Procedure, shortened: as §1
# T-47D (Breast Cancer) = assay: NCI one dose, T-47D; format: cell-based, human; details: 1.00E-5 Molar one dose
# Procedure, shortened: as §2
# SW-620 (Colon Cancer) = assay: NCI one dose, SW-620; format: cell-based, human; details: SW-620, 1.00E-5 Molar one dose
# Procedure, shortened: as §1
# SNB-75 (CNS Cancer) = assay: NCI one dose, SNB-75; format: cell-based, human; details: SNB-75, 1.00E-5 Molar one dose
# Procedure, shortened: as §1
# OVCAR-4 (Ovarian Cancer) = assay: NCI one dose, OVCAR-4; format: cell-based, human; details: OVCAR-4, 1.00E-5 Molar one dose
# Procedure, shortened: as §1
# [3] = test system: NCI-H460 (Non-Small Cell Lung Cancer); assay: NCI one dose, NCI-H460; format: cell-based, human; details: NCI-H460, 1.00E-5 Molar one dose
# Procedure, shortened: as §2
# 786-0 (Renal Cancer) = assay: NCI one dose, 786-0; format: cell-based, human; details: 786-0, 1.00E-5 Molar one dose
# Procedure, shortened: as §1
# SF-539 (CNS Cancer) = assay: NCI one dose, SF-539; format: cell-based, human; details: SF-539, 1.00E-5 Molar one dose
# Procedure, shortened: as §1
# [4] = test system: NCI/ADR-RES (Ovarian Cancer); assay: NCI one dose, NCI/ADR-RES; format: cell-based, human; details: 1.00E-5 Molar one dose
# Procedure, shortened: as §1
# COLO 205 (Colon Cancer) = assay: NCI one dose, COLO 205; format: cell-based, human; details: COLO 205, 1.00E-5 Molar one dose
# Procedure, shortened: as §1
# OVCAR-8 (Ovarian Cancer) = assay: NCI one dose, OVCAR-8; format: cell-based, human; details: OVCAR-8, 1.00E-5 Molar one dose
# Procedure, shortened: as §2
# SN12C (Renal Cancer) = assay: NCI one dose, SN12C; format: cell-based, human; details: 1.00E-5 Molar one dose
# Procedure, shortened: as §1
# UACC-257 melanoma cells = assay: NCI one dose, UACC-257; format: cell-based, human; details: UACC-257, 1.00E-5 Molar one dose
# Procedure, shortened: as §1
# HT29 (Colon Cancer) = assay: NCI one dose, HT29; format: cell-based, human; details: HT29, 1.00E-5 Molar one dose
# Procedure, shortened: as §1
# [5] = test system: MDA-MB-468 breast cancer cells; assay: NCI one dose, MDA-MB-468; format: cell-based, human; details: MDA-MB-468, 1.00E-5 Molar one dose
# Procedure, shortened: as §1
# [6] = test system: NCI-H322M (Non-Small Cell Lung Cancer); assay: NCI one dose, NCI-H322M; format: cell-based, human; details: 1.00E-5 Molar one dose
# Procedure, shortened: as §1
# [7] = test system: MDA-MB-231/ATCC (Breast Cancer); assay: NCI one dose, MDA-MB-231/ATCC; format: cell-based, human; details: 1.00E-5 Molar one dose
# Procedure, shortened: as §1
# TK-10 (Renal Cancer) = assay: NCI one dose, TK-10; format: cell-based, human; details: TK-10, 1.00E-5 Molar one dose
# Procedure, shortened: as §1
smiles,measurement,setting,value
C[C@@]12SC[C@@H](C(=O)NCc3ccccc3C(F)(F)F)N1C(=O)c1ccccc12 [4bC],Growth Percent,HCT-15 (Colon Cancer),100.40%
same,Delta (One Dose Mean Graph),[1],25.73
same,Range (One Dose Mean Graph),[1]; in % (unit assumed),45.90
same,Mean Growth Percent,[1]; mean over tested cell lines,95.29%
same,Growth Percent,MCF7 (Breast Cancer),90.83%
same,Growth Percent,IGROV1 (Ovarian Cancer),103.13%
same,Growth Percent,HS 578T (Breast Cancer),94.37%
same,Growth Percent,SK-OV-3 (Ovarian Cancer),100.95%
same,Growth Percent,[2],69.56%
same,Growth Percent,SK-MEL-5 (Melanoma),100.19%
same,Growth Percent,HCC-2998 (Colon Cancer),105.71%
same,Growth Percent,M14 (Melanoma),100.54%
same,Growth Percent,SF-295 (CNS Cancer),93.93%
same,Growth Percent,OVCAR-3 (Ovarian Cancer),115.46%
same,Growth Percent,SK-MEL-28 (Melanoma),111.34%
same,Growth Percent,A498 (Renal Cancer),79.95%
same,Growth Percent,RPMI-8226 (Leukemia),87.02%
same,Growth Percent,T-47D (Breast Cancer),86.40%
same,Growth Percent,SW-620 (Colon Cancer),104.67%
same,Growth Percent,SNB-75 (CNS Cancer),96.49%
same,Growth Percent,OVCAR-4 (Ovarian Cancer),93.35%
same,Growth Percent,[3],105.02%
same,Growth Percent,786-0 (Renal Cancer),101.91%
same,Growth Percent,SF-539 (CNS Cancer),100.26%
same,Growth Percent,[4],101.64%
same,Growth Percent,COLO 205 (Colon Cancer),104.03%
same,Growth Percent,OVCAR-8 (Ovarian Cancer),92.54%
same,Growth Percent,SN12C (Renal Cancer),94.74%
same,Growth Percent,UACC-257 melanoma cells,73.01%
same,Growth Percent,HT29 (Colon Cancer),79.15%
same,Growth Percent,[5],101.77%
same,Growth Percent,[6],101.48%
same,Growth Percent,[7],100.45%
same,Growth Percent,TK-10 (Renal Cancer),92.04%
